Assay [1] deals with bronchospasms elicited by 5-hydroxytryptamine. Description: Bronchodilator Activity (Konzett Assay) against 5-hydroxytryptamine. The class given is in vivo, guinea pigs. Conditions: Cavia porcellus; three logarithmic cumulative intravenous doses. As to the method:
(§1) Bronchodilator activity was determined in guinea pigs against bronchospasms elicited by intravenous injections of 5-hydroxytryptamine, histamine or acetylcholine by the Konzett procedure. [See J. Lulling, P. Lievens, F. El Sayed and J. Prignot, Arzeneimittel-Forschung, 18, 995 (1968)]. In Table IIIC which follows bronchodilator activity for representative compounds of this invention against one or more of the three spasmogenic agents is expressed as an ED50 determined from the results obtained with three logarithmic cumulative intravenous doses.

For assay [2], the system named is bronchospasms elicited by acetylcholine. Description: Bronchodilator Activity (Konzett Assay) against acetylcholine. The class given is in vivo, guinea pigs. Conditions: Cavia porcellus; three logarithmic cumulative intravenous doses. The procedure:
as §1

In assay [3] the test system is dl-PGE1-induced contraction of gerbil colon. The assay can be described thus: Inhibition of dl-PGE1-Induced Contraction of Gerbil Colon (prostaglandin antagonist action). The class given is cell-based, gerbils (Meriones unguiculatus). As to conditions: Meriones unguiculatus, 1 min. The procedure:
The compounds of this invention are also useful as antagonists of prostaglandin action and accordingly they are potentially useful as anti-inflammatory agents, and as agents for the treatment of periodontal diseases and diarrhea. Testing for prostaglandin antagonist action is carried out in the following manner. Sections of ascending colon, approximately 20 mm. long, from mature male gerbils (Meriones unguiculatus) weighing 70-80 g. were mounted in De Jalon's solution (154 mM NaCl; 5.95 mM NAHCO3; […], 5.64 mM KC and .27 mM CaCl2 in 20 ml. tissue baths) (L and K Glass Co., Lynnhurst, N.J.). The medium was continually gassed with a mixture of 95% 02 -5% CO2 and maintained at 37° C. The tissues were suspended via silk suture threads between a glass hook at the base and a model FT .03C force displacement transducer (Grass Instruments, Quincy, Massachusetts). Contractions were recorded on a Poly-Viso ® polygraph (Sanborn Co., Cambridge, Massachusetts). After mounting, tissues were allowed to stabilize 15-20 minutes during which time adjustments were made to establish and maintain a 0.5 g. resting tension on the muscle. Thereafter, test cycles of 3-5 minutes were begun and consisted of a 1 minute exposure to the potential antagonist, if called for, followed by a 1 minute exposure to the prostaglandin agonist, a 15-30 sec. washout and a recovery period of 2-2.5 minutes. […] During the washout period, the tissue was rinsed with a measured amount equalling 8 volumes of medium. Muscle relaxation was virtually complete by the end of the washout period. During preliminary tests it was noted that a final concentration of 200 ng./ml. of a racemic mixture of synthetic prostaglandin-E1 (dl-PGE1) produced maximal muscle contraction. Following stabilization, muscles were exposed 2 to 3 times to this concentration of dl-PGE1 until a consistent response was recorded. Once maximal responses were established, test cycles with potential antagonists were commenced and were followed alternately with prostaglandin-only test cycle. […] The contraction of the muscle induced by 200 ng./ml. dl-PGE1 following exposure to a given concentration of the potential antagonist was always compared to the response of the tissue to that level of dl PGE1 in the immediately preceding cycle. Using a series of potential antagonist concentrations, an approximate ID50 (concentration at which 50% inhibition was observed) was established. The compounds were also tested against a sub-maximal prostaglandin challenge (20 ng./ml. dl-PGE1) in which case activity is reported in terms of a 50% inhibition of maximum response.

Assay [4] has as its system bronchospasms elicited by histamine. Description: Bronchodilator Activity (Konzett Assay) against histamine. As to conditions: Cavia porcellus; three logarithmic cumulative intravenous doses. The class given is in vivo, guinea pigs. As to the method:
as §1

The test system of the next assay is gastric acid secretion. The assay can be described thus: Inhibition of Gastric Acid Secretion (Pylorous-Ligated Rat), Shay rat procedure. Format: in vivo, rats (male, CFE strain). As to conditions: read-out: % Inhibition of Control Gastric Acid Secretion; for inhibition in vivo at 100 mg/kg: 100 mg./kg. intraduodenal. An excerpt:
The novel compounds of the present invention are also effective inhibitors of gastric acid secretion and of ulcer development in experimental animals, and thus are potentially valuable as agents for the control of gastric acid secretion and of gastric erosion and as anti-ulcer agents. Gastric acid secretion inhibitory action is usually measured by the Shay rat procedure ^(1,2) with some modifications as follows. 6 1. Shay et al., Gastroenterology, 5, 43 (1945). 6 2. Shay et al., Gastroenterology, 26, 906 (1954).
The rats (male, CFE strain) were starved for 48 hours (water was given ad libitum) to permit evacuation of stomach contents. On the morning of the experiment, under ether anesthesia, the abdominal region was shaved and a midline incision (1-1 1/2 inch) was made with a scalpel. With the help of a closed curved hemostat the duodenum was picked up. Upon getting the duodenum into view fingers were used to pull the stomach through the opening, the stomach was then gently manipulated with fingers to rid stomach of air and residual matter which were pushed through the pylorus. Two 5-inch sutures were drawn under the pyloric-duodenal puncture. A ligature, at the juncture, was formed with one of the threads. The second ligature was also formed but not tightened.
The test compound or the vehicle, usually 1 ml./100 g. body weight, were injected into the duodenum as close as possible to the first ligature. After injection the second ligature was tightened below the injection site to minimize leakage. The stomach was placed back through the opening into the abdominal cavity, the area of incision was washed with saline and the incision was closed with autoclips. (Ocasionally instead of an intraduodenal injection, animals were dosed by the oral or subcutaneous route. In the latter case, dosing was done thirty to sixty minutes before the operation).
The abdominal cavity was exposed by cutting with scissors and the esophagus close to the stomach was clamped off with a hemostat, the stomach was removed by cutting above the hemostat (the esophagus was cut) and between the two sutures. Extraneous tissue was removed, the stomach washed with saline and blotted on gauze. A slit was carefully made in the stomach which was held over a funnel and the contents were collected in a centrifuge tube. The stomach was further cut along the outside edge and turned inside out. Two ml. of water were used to wash the stomach contents into the respective centrifuge tube. The combined stomach contents and wash were then centrifuged out for 10 minutes in the International Size 2 Centrifuge (setting at 30). The supernatant was collected, volume measured and recorded, 2 drops of phenolphthalein indicator (1% in 95% ethanol) were added and the solution was titrated with 0.02N NaOH (or with 0.04N NaOH when large volumes of stomach contents were encountered) to pH 8.4 (because of usual coloring of the stomach contents, phenolphthalein was only used to permit visual indication that the end point was near) and the amount of acid present was calculated.
Compounds inducing inhibition of gastric acid secretion of 20% or more were considered active. In a representative operation, and merely by way of illustration, the results obtained with this assay with typical compounds of the present invention are given in Table IIIA.

A further assay deals with diastolic blood pressure. The assay can be described thus: Prostaglandin-like hypotensive activity in anesthetized rats (minimal dose for about 10 mm. decrease in diastolic blood pressure). The class given is in vivo, Male Wistar strain rats. Conditions: Rattus norvegicus; intravenous; decrease of about 10 mm. in diastolic blood pressure. As to the method: This procedure is a modification of the technique described by Pike et al., Prostaglandins, Nobel Symposium 2, Stockholm, June, 1966; p, 165.
Male Wistar strain rats (Royal Hart Farms) averaging approximately 250 grams in weight were fastened to rat boards in a supine position by means of canvas vests and limb ties. The femoral area was infiltrated subcutaneously with lidocaine and the iliac artery and vein exposed and cannulated. Arterial blood pressure (systolic/diastolic) was recorded using a Statham P23 Db pressure transducer-Offner dynograph system. To obtain a stable blood pressure, the animals were anesthetized before use with pentobarbital, 30 mg./kg. of body weight intravenously, and also were given hexamethonium bitartrate, 2 mg./kg. of body weight intravenously. The test compounds were prepared by ultrasonic dispersion in a saline-Tween 80 ® vehicle. A constant intravenous dose volume of 0.5 ml. was administered and test doses ranged from 0.1 to 10.0 mg./kg. of body weight. Increasing or decreasing doses were selected depending on the dose response obtained. In Table I below are set forth the minimal doses required to produce a decrease of about 10 mm. in diastolic blood pressure for typical compounds of the present invention.

The test system of assay [5] is Trichophyton tonsurans NIH 662. The assay can be described thus: agar-dilution streak-plate antimicrobial assay. Format: cell-based. Conditions: NIH662, read-out: Minimal inhibitory conc. (3). The procedure:
(§2) The novel compounds of the present invention are also useful as antimicrobial agents. […] In this assay, the compounds to be tested are made up to contain 2.5 mg. of test compound per milliliter of solution. Observing sterile techniques, two-fold serial dilution are made of each test solution. One milliliter of each of the original solutions and of each of the serial dilutions is then added to 9 ml. of warm sterile nutrient agar capable of supporting growth of the bacterial test cultures. A second set of agar dilutions is prepared identical to the first except that the nutrient agar is designed to support the growth of the fungal test cultures. […] The test bacteria and yeast-like fungi are prepared for use by growing in broth overnight. The spores of the filamentous fungi are harvested from mature agar slant cultures and are suspended in sterile physiological saline solution. A loopful of each of the resulting live suspensions is then, still employing sterile techniques, streaked upon the surfaces of each of the agar plates and the resulting streaked plates are then incubated. After an appropriate period of time, each of the streaks on each of the plates is inspected visually and the extent, if any, of bacterial or fungal growth is noted. The minimal inhibitory concentration (expressed in micrograms per milliliter) is defined as the concentration of test compound causing complete inhibition of growth of any particular organism. In a representative operation, and merely by way of illustration, the minimal inhibitory concentration of typical compounds of the present invention against a variety of test organisms as determined in the above-described assay are set forth in Tables II and III below: […]

Assay [6] relates to Mycobacterium smegmatis ATCC 606. Description: agar-dilution streak-plate antimicrobial assay. Format: cell-based. Conditions: Mycolicibacterium smegmatis, ATCC606, read-out: Minimal inhibitory conc. (6). The procedure:
as §2

The mark [7] stands for this setting: 200 ng./ml. dl-PGE1, read-out: ID50 vs. 200 ng. of PGE1/ml.
The mark [8] stands for this setting: sub-maximal challenge, 20 ng./ml. dl-PGE1, 50% inhibition of maximum response, read-out: ID50 vs. 20 ng. of PGE1/ml.

Values after ≈ are worked out from the molar mass of the structure shown. Where two headings read alike, the source gives them in different places.

As usually defined, the ED50 is the dose at which the effect has come halfway, by size or by number of responders. Low readings indicate greater potency, high ones weaker potency. Turning to `CCCCCC/C=C/[C@@H]1CCC(=O)[C@H]1C/C=C\CCCC(=O)O` (relative stereo) [9-oxo-5-cis,13-trans-prostadienoic acid, 9-oxo-5-cis-13-trans-prostadienoic acid], the ED50 stood at 1.5 mg/kg in assay [1], 4.36 mg/kg in assay [2] and 1.42 mg/kg in assay [4]. Moreover, the IC50 in assay [3] (setting [7]) is 9 µg/mL (≈ 28.1 µM); in assay [3] (setting [8]), 0.9 µg/mL (≈ 2.81 µM).
`CCCCCC/C=C/[C@@H]1CCC(=NO)[C@H]1CCCCCCC(=O)O` (relative stereo) [9-oxo-13-trans-prostenoic acid 9-oxime, 9-Oxo-13-trans-prostenoic acid oxime]: the ED50 in assay [1] worked out at 30 mg/kg; in assay [2], 12.5 mg/kg; in assay [4], 23.1 mg/kg. Further, in assay [3] (setting [8]), the IC50 was in the range of 1 to 2 µg/mL (≈ 2.96 to 5.93 µM). For the same molecule, the inhibition in vivo at 100 mg/kg with gastric acid secretion was 39%.
Regarding `CCCC/C=C/[C@H]1CCC(=O)[C@@H]1CCCCCCC(=O)O` (relative stereo) [9-oxo-19,20-dinor-13-trans-prostenoic acid], the figures for the ED50 in assay [1], in assay [2] and in assay [4] were 2.16 mg/kg, 5.28 mg/kg and 0.715 mg/kg, respectively. The IC50 in assay [3] (setting [8]) is 1 to 2 µg/mL (≈ 3.4 to 6.79 µM). Further, in the assay on gastric acid secretion (50 mg./kg. intraduodenal), the inhibition in vivo at 50 mg/kg was determined as 37%. Besides, in the assay with gastric acid secretion, the inhibition in vivo at 100 mg/kg was 77%.
As to `CCCCCC/C=C/[C@@H]1CCC(=O)[C@H]1CCCCSCC(=O)O` (relative stereo) [9-oxo-3-thia-13-trans-prostenoic acid], the ED50 in assay [1] stood at 1.56 mg/kg; in assay [2], 2.43 mg/kg; in assay [4] it was 1.24 mg/kg. Moreover, the IC50 in assay [3] (setting [7]) amounted to 20 µg/mL (≈ 58.7 µM).
As for `CCCC=CC1CCC(=O)C1CCCCCC(F)C(=O)O` (stereo not drawn) [9-oxo-2-fluoro-18,19,20-trinor-13-trans-prostenoic acid], the ED50 in assay [1] is 8.36 mg/kg; in assay [2] it was above 10 mg/kg; in assay [4] it was 6.35 mg/kg. Besides, in assay [3] (setting [7]), the IC50 is 25 to 30 µg/mL (≈ 83.8 to 101 µM).
In the case of `CCCCCC/C=C/[C@H]1CCC(=O)[C@@H]1CCCCCC(CC)C(=O)O` (stereo partly drawn) [9-oxo-2-ethyl-13-trans-prostenoic acid, 2-ethyl-9-oxo-13-trans-prostenoic acid], the results for the ED50 in assay [1], in assay [2] and in assay [4] were 2.91 mg/kg, above 10 mg/kg and 7.75 mg/kg, respectively. The IC50 was 15 µg/mL (≈ 42.8 µM) in assay [3] (setting [7]) and 4 to 5 µg/mL (≈ 11.4 to 14.3 µM) in assay [3] (setting [8]).
For orientation: minimal effective dose means the lowest level tested that produced the effect sought. Low readings indicate an effect from little substance, high ones a need for much substance. `CCCCCCCCCC/C=C/[C@H]1CCC(=O)[C@@H]1CCCCCCC(=O)OCC` (relative stereo) [ethyl 20-butyl-9-oxo-13-trans-prostenoate] yielded a minimal effective dose in the assay with diastolic blood pressure of 10 mg/kg. Moreover, the MIC in assay [5] and in assay [6] was 250 µg/mL (≈ 615 µM) each time.
On to `CCCCCC/C=C/[C@@H]1CCC(=O)[C@H]1CCCCOCC(=O)O` (relative stereo) [9-oxo-3-oxa-13-trans-prostenoic acid], for which the ED50 in assay [1] came out at 0.895 mg/kg; in assay [2], 5.24 mg/kg; in assay [4] it was 0.67 mg/kg. In assay [3] (setting [7]), the IC50 came to 20 µg/mL (≈ 61.6 µM). Besides, in the assay on gastric acid secretion, the inhibition in vivo at 100 mg/kg came to 90%.
On to `CCCCCC/C=C/[C@@H]1CCC(=O)[C@H]1CCCCC(C)(C)CC(=O)O` (relative stereo) [3,3-dimethyl-9-oxo-13-trans-prostenoic acid], for which the figures for the ED50 in assay [1], in assay [2] and in assay [4] were 12 mg/kg, above 10 mg/kg and 5.1 mg/kg, respectively. For the same molecule, the results for the IC50 in assay [3] (setting [7]) and in assay [3] (setting [8]) were 3 to 5 µg/mL (≈ 8.56 to 14.3 µM) and 1 µg/mL (≈ 2.85 µM), respectively. Also, the inhibition in vivo at 200 mg/kg in the assay with gastric acid secretion (200 mg./kg. intraduodenal) was found to be 72%.

These data come from patent US4044043A, “Derivatives of 9-oxo-13-trans-prostenoic acid esters” (American Cyanamid Company, priority 1975, dated 1977).
